Results from patent publication US10053457B2, “Hydroxyalkyl-piperazine derivatives as CXCR3 receptor modulators” (IDORSIA PHARMACEUTICALS LTD, priority 2015, dated 2018).

How the values were obtained:
Assay type in all cases: cell-based
[1] = target: human CXCR3A (Homo sapiens (Human), UniProt P49682); experiment: FLIPR assay (CXCL10-induced calcium signal); conditions: CHO-K1 cells expressing human CXCR3A coupled to Galpha(16); CXCL10 agonist 20 nM; mean values
Text: (§1) In the case where IC50 values have been determined several times for the same compound, mean values are given.

[2] = target: hERG K channel (Homo sapiens (Human), UniProt Q12809); experiment: hERG Q-Patch assay; conditions: CHO cells expressing hERG, K+ tail current 3 min after application, mean of two or three experiments
Protocol: Compounds are evaluated for block of the hERG K channel using CHO cells stably expressing the hERG gene (accession number U04270, bSys, Witterswil, Switzerland) and the QPatch robotic platform (Sophion, Ballerup, Denmark) in single-cell mode at room temperature. Cells are grown in culture flasks at 37° C. in 5% CO2, in culture medium (Ham's F-12 Nutrient Mixture, Invitrogen 21765-029) supplemented with 9% (v/v) fetal calf serum, 0.9% Penicillin/Streptomycin (10,000 U/mL, Invitrogen 15140148), 100 μg/mL Hygromycin B (Invitrogen 10687010). When the cells are ˜80% confluent (every 2-3 days), they are either split for further culture or used for electrophysiology. For further culture, cells are detached with 0.25% Trypsin EDTA solution (Invitrogen 25200-056) and a fraction of the cells (10-30%) is reseeded in culture medium. For electrophysiology, on the experimental day, cells are detached with 0.25% Trypsin EDTA solution and all cells are suspended in suspension medium (293 SFM II, Invitrogen 11686-029) supplemented with 20 mM HEPES and 0.04 mg/mL Trypsin inhibitor. Cells are kept in suspension medium at 32-35° C. in the QPatch robot until use, at which time aliquots are transferred to the extracellular solution (in mM: NaCl 150; KCl 4; CaCl2 1.2; MgCl2 1; HEPES 10; pH 7.4 with NaOH) containing 0.3% v/v DMSO and applied to the test plates. K^+ currents are measured with the patch-voltage-clamp technique in the whole-cell configuration with the internal solution (in mM: KCl, 140; NaCl, 10; MgCl2, 1; HEPES, 10: EGTA, 5; pH=7.2 with KOH). Currents are low-pass filtered using the internal Bessel filter of the QPatch robot with a cut-off frequency of 2 kHz and are digitized at 10 kHz. K^+ tail currents are produced from a holding voltage of −80 mV by a 500-ms depolarization to +20 mV followed by a 500-ms repolarization to −40 mV; tail current amplitudes are measured at the end of the repolarization to −40 mV. The pulse pattern is repeated every 10 sec during the experiment, baseline K^+ current is measured after 3 min in extracellular solution, test-solution containing compound is then applied, and K^+ current in presence of compound is measured 3 minutes after application to the cells. The respective test-solution is prepared by (1) dissolving the test-compound in pure DMSO, (2) diluting this DMSO solution in extracellular solution, and (3) adding further DMSO, such that the final test-solution has a concentration of either 300 nM or 3000 nM of the test-compound and contains 0.3% v/v DMSO. Compound effects are quantified as % block by dividing the current in presence of compound by the baseline current; two or three experiments are performed for each compound and the final value represents the mean of the results of each experiment.

[3] = target: CXCR3 (Homo sapiens (Human), UniProt P49682); experiment: Receptor internalization assay in human whole blood (CXCR3 surface expression on CD4 positive cells, CXCL10); conditions: final CXCL10 9 nM, 30 min at 37° C., mean values
Protocol: Diluted compounds are then mixed with an equal volume of CXCL10 (Peprotech) diluted in PBS. Anticoagulated venous human whole blood is added to the mixture, which is then incubated in a CO2 incubator at 37° C. to allow for ligand mediated receptor internalization (final CXCL10 concentration is 9 nM). After 30 min, the blood is mixed with fluorescently labeled CXCR3 and CD4 specific antibodies (Becton Dickinson) and incubated on ice for 10 minutes. Samples are then mixed with BD FACS Lysing Solution (Becton Dickinson) in order to eliminate red blood cells. After washing the cells with PBS containing 0.5% BSA, the samples are then analyzed in a flow cytometer (FACS Canto II, Becton Dickinson). For data analysis using FACSDiva software (Becton Dickinson), the mean fluorescence corresponding to CXCR3 cell surface expression was determined on CD4 positive cells. The program GraphPad Prism or similar software is used to fit the data to a single site dose response curve and to calculate IC50 values.
as §1

Sequence of human CXCR3A (P49682 whole entry): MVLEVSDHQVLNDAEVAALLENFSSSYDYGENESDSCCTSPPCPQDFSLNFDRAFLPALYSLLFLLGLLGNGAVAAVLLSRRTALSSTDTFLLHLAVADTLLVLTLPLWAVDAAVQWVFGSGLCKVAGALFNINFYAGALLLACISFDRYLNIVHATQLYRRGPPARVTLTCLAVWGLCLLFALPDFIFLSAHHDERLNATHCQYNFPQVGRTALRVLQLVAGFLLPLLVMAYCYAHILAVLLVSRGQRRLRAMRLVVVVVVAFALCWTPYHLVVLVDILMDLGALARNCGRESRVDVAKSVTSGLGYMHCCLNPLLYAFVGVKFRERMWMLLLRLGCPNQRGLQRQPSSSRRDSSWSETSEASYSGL
Sequence of CXCR3 (P49682 whole entry): as above
Sequence of hERG K channel (Q12809 whole entry): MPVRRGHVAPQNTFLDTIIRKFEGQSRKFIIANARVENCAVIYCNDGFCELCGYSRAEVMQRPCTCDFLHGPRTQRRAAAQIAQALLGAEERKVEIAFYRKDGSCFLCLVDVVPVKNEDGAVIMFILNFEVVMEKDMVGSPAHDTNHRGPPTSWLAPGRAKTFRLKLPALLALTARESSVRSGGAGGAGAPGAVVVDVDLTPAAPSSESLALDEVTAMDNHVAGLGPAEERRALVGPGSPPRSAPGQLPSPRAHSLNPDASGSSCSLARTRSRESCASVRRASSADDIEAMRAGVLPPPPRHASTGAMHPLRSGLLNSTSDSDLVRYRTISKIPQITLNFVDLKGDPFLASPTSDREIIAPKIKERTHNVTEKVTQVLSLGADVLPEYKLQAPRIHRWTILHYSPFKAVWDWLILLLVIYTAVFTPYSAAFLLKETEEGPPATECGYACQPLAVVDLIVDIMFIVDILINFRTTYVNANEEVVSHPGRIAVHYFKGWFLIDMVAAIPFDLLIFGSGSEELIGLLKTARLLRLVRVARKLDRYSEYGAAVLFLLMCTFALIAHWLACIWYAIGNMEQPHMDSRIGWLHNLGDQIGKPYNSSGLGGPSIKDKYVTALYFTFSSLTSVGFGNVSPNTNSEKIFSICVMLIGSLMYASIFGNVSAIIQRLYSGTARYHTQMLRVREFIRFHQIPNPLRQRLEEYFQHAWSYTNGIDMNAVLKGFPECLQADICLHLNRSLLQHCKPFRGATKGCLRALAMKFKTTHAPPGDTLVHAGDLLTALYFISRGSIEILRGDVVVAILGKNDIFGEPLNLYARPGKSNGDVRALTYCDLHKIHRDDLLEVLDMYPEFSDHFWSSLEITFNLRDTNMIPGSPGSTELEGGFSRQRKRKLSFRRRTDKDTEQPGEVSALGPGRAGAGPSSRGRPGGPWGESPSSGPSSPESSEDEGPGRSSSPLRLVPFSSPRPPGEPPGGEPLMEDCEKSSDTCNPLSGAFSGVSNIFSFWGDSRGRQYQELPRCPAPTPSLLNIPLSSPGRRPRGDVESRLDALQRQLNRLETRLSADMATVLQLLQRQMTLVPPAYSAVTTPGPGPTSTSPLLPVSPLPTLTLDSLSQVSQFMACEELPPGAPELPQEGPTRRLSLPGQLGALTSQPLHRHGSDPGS

| Compound | IC50 [1] [nM] | IC50 [3] [nM] | % block ([2]; concentration 300 nM) [%] | % block ([2]; concentration 3000 nM) [%] |
| --- | --- | --- | --- | --- |
| O=C(Cn1cnc(C(F)(F)F)n1)N1CCN(c2sc(C(F)(F)F)nc2-c2cnc(C3CC3)nc2)C[C@H]1CO [Example 9, 1-{(S)-4-[4-(2-Cyclopropyl-pyrimidin-5-yl)-2-trifluoromethyl-thiazol-5-yl]-2-hydroxymethyl-piperazin-1-yl}-2-(3-trifluoromethyl-[1,2,4]triazol-1-yl)-ethanone] | 1.3 | 1520 | 8 | 24 |
| CCc1ccn(CC(=O)N2CCN(c3sc(C(F)(F)F)nc3-c3cnc(C(F)(F)F)nc3)C[C@H]2CO)n1 [Example 43, 2-(3-Ethyl-pyrazol-1-yl)-1-{(S)-2-hydroxymethyl-4-[2-trifluoromethyl-4-(2-trifluoromethyl-pyrimidin-5-yl)-thiazol-5-yl]-piperazin-1-yl}-ethanone] | 1.2 | 40.3 | 5 | 25 |
| Cc1nc(C)n(CC(=O)N2CCN(c3sc(C(F)(F)F)nc3-c3cnc(C(F)(F)F)nc3)C[C@H]2CCO)n1 [Example 27, 2-(3,5-Dimethyl-[1,2,4]triazol-1-yl)-1-{(R)-2-(2-hydroxy-ethyl)-4-[2-trifluoromethyl-4-(2-trifluoromethyl-pyrimidin-5-yl)-thiazol-5-yl]-piperazin-1-yl}-ethanone] | 5.2 | 235 | 1 | 4 |
| CCc1ncnn1CC(=O)N1CCN(c2sc(C(F)(F)F)nc2-c2cnc(C(F)(F)F)nc2)C[C@H]1CCO [Example 33, 2-(5-Ethyl-[1,2,4]triazol-1-yl)-1-{(R)-2-(2-hydroxy-ethyl)-4-[2-trifluoromethyl-4-(2-trifluoromethyl-pyrimidin-5-yl)-thiazol-5-yl]-piperazin-1-yl}-ethanone] | 27 | 652 | −5 | 6 |
| Cc1ccn(CC(=O)N2CCN(c3sc(C(F)(F)F)nc3-c3cnc(C(F)(F)F)nc3)C[C@H]2CO)n1 [Example 42, 1-{(S)-2-Hydroxymethyl-4-[2-trifluoromethyl-4-(2-trifluoromethyl-pyrimidin-5-yl)-thiazol-5-yl]-piperazin-1-yl}-2-(3-methyl-pyrazol-1-yl)-ethanone] | 1 | 59.7 | 2 | 15 |
| O=C(Cn1cnc(C(F)(F)F)n1)N1CCN(c2sc(C(F)(F)F)nc2-c2cnc(C(F)(F)F)nc2)C[C@H]1CO [Example 5, 1-{(S)-2-Hydroxymethyl-4-[2-trifluoromethyl-4-(2-trifluoromethyl-pyrimidin-5-yl)-thiazol-5-yl]-piperazin-1-yl}-2-(3-trifluoromethyl-[1,2,4]triazol-1-yl)-ethanone] | 4 | 328 | −2 | 7 |
| O=C(Cn1ccc2cc(F)ccc21)N1CCN(c2sc(C(F)(F)F)nc2-c2cnc(C(F)(F)F)nc2)C[C@@H]1CO [Example 14, 2-(5-Fluoro-indol-1-yl)-1-{(R)-2-hydroxymethyl-4-[2-trifluoromethyl-4-(2-trifluoromethyl-pyrimidin-5-yl)-thiazol-5-yl]-piperazin-1-yl}-ethanone] | 0.7 | 199 | 14 | 62 |
| Cc1nc(-c2ncn(CC(=O)N3CCN(c4sc(C(F)(F)F)nc4-c4cnc(C(F)(F)F)nc4)C[C@@H]3CO)n2)no1 [Example 18, 1-{(R)-2-Hydroxymethyl-4-[2-trifluoromethyl-4-(2-trifluoromethyl-pyrimidin-5-yl)-thiazol-5-yl]-piperazin-1-yl}-2-[3-(5-methyl-[1,2,4]oxadiazol-3-yl)-[1,2,4]triazol-1-yl]-ethanone] | 510 | 6500 | 6 | 13 |
| Cc1nc(C)n(CC(=O)N2CCN(c3sc(C(F)(F)F)nc3-c3cnc(C(F)(F)F)nc3)C[C@H]2CO)n1 [Example 2, 2-(3,5-Dimethyl-[1,2,4]triazol-1-yl)-1-{(S)-2-hydroxymethyl-4-[2-trifluoromethyl-4-(2-trifluoromethyl-pyrimidin-5-yl)-thiazol-5-yl]-piperazin-1-yl}-ethanone] | 6 | 463 | −3 | −4 |

The next lines start with results.

| IC50 [1] [nM] | IC50 [3] [nM] | Compound | % block ([2]; concentration 300 nM) [%] | % block ([2]; concentration 3000 nM) [%] |
| --- | --- | --- | --- | --- |
| 2.6 | 93.3 | CCc1ncn(CC(=O)N2CCN(c3sc(C(F)(F)F)nc3-c3cnc(C(F)(F)F)nc3)C[C@H]2CCO)n1 [Example 32, 2-(3-Ethyl-[1,2,4]triazol-1-yl)-1-{(R)-2-(2-hydroxy-ethyl)-4-[2-trifluoromethyl-4-(2-trifluoromethyl-pyrimidin-5-yl)-thiazol-5-yl]-piperazin-1-yl}-ethanone] | 0 | 19 |
| 6.7 | 415 | CC(C)(C)c1ncn(CC(=O)N2CCN(c3sc(C(F)(F)F)nc3-c3cnc(C(F)(F)F)nc3)C[C@H]2CO)n1 [Example 1, 2-(3-tert-Butyl-[1,2,4]triazol-1-yl)-1-{(S)-2-hydroxymethyl-4-[2-trifluoromethyl-4-(2-trifluoromethyl-pyrimidin-5-yl)-thiazol-5-yl]-piperazin-1-yl}-ethanone] | 2 | 12 |
| 5.9 | 1290 | COCc1ncn(CC(=O)N2CCN(c3sc(C(F)(F)F)nc3-c3cnc(C(F)(F)F)nc3)C[C@@H]2CO)n1 [Example 17, 1-{(R)-2-Hydroxymethyl-4-[2-trifluoromethyl-4-(2-trifluoromethyl-pyrimidin-5-yl)-thiazol-5-yl]-piperazin-1-yl}-2-(3-methoxymethyl-[1,2,4]triazol-1-yl)-ethanone] | 2 | 6 |
| 2.9 | 102 | Cc1ncn(CC(=O)N2CCN(c3sc(C(F)(F)F)nc3-c3cnc(C(F)(F)F)nc3)C[C@H]2CCO)n1 [Example 35, 1-{(R)-2-(2-Hydroxy-ethyl)-4-[2-trifluoromethyl-4-(2-trifluoromethyl-pyrimidin-5-yl)-thiazol-5-yl]-piperazin-1-yl}-2-(3-methyl-[1,2,4]triazol-1-yl)-ethanone] | 11 | 25 |
| 3.9 | 542 | Cc1ncn(CC(=O)N2CCN(c3sc(C(F)(F)F)nc3-c3cnc(C(F)(F)F)nc3)C[C@@H]2CO)n1 [Example 16, 1-{(R)-2-Hydroxymethyl-4-[2-trifluoromethyl-4-(2-trifluoromethyl-pyrimidin-5-yl)-thiazol-5-yl]-piperazin-1-yl}-2-(3-methyl-[1,2,4]triazol-1-yl)-ethanone] | 1 | 1 |
| 4.6 | 778 | CCOc1ncc(-c2nc(C(F)(F)F)sc2N2CCN(C(=O)Cn3cnc(C(F)(F)F)n3)[C@H](CO)C2)cn1 [Example 6, 1-{(S)-4-[4-(2-Ethoxy-pyrimidin-5-yl)-2-trifluoromethyl-thiazol-5-yl]-2-hydroxymethyl-piperazin-1-yl}-2-(3-trifluoromethyl-[1,2,4]triazol-1-yl)-ethanone] | 13 | 23 |
